# From US8338565B2, “Macrocyclic compounds for inhibition of tumor necrosis factor alpha” (Ensemble Therapeutics Corporation, priority 2008, dated 2012)
# Numbered stars: 1 amine (or outer) side, 2 acyl side, 3 side chain; on linkers, the order of the positions; unused ones are H or OH. Bridge positions count the residues as written; N and C are the ends. Square brackets hold non-standard residues; d marks the D form. Peptide text beside a SMILES is read from it. * marks the point of attachment. Tartaroyl(2R,3R-(OAc)2) = CC(=O)O[C@@H](C(=O)[*:1])[C@@H](OC(C)=O)C(=O)[*:2]; Phe(4-CF3) = N[C@@H](Cc1ccc(C(F)(F)F)cc1)C(=O)O; dPhe(4-CN) = N#Cc1ccc(C[C@@H](N)C(=O)O)cc1; Bip = N[C@@H](Cc1ccc(-c2ccccc2)cc1)C(=O)O; dPhe(4-NH2) = Nc1ccc(C[C@@H](N)C(=O)O)cc1; Phe(4-Br) = N[C@@H](Cc1ccc(Br)cc1)C(=O)O; Phe(4-NH2) = Nc1ccc(C[C@H](N)C(=O)O)cc1; Diglycolyl = O=C(COCC(=O)[*:2])[*:1]; d(hPhe) = N[C@H](CCc1ccccc1)C(=O)O; d2Thi = N[C@H](Cc1cccs1)C(=O)O; Suc = O=C(CCC(=O)[*:2])[*:1]; OtBu = CC(C)(C)O*
# Biological target: T1, TNFα / TNFα receptor (TNFα R1/Fc) (Homo sapiens, UniProt P01375)
# T1 construct: purchased R&D Systems
# Test: Inhibition of binding of TNFα to the TNFα receptor (plate ELISA competition)
# Details: Activity (IC50, inhibition of TNFα binding to TNFα R1/Fc), Table 2
# Experimental: The compounds listed in Table 2 below were assayed for ability to inhibit binding of TNFα to the TNFα receptor (TNFα R1/Fc). The assays were performed as described in the following procedure: TNFα (R&D Systems) was coated on high binding plate wells (Corning 96-well) at a single uniform concentration of 15 nM, 100 μL/well in PBS. The coating proceeded for 30 minutes at 37° C. then 10 minutes at 4° C. The coated plate was washed with PBST, then 250 μL/well of blocking solution (PBST 0.1% BSA, bovine serum albumin) was added and incubation proceeded for 30-45 minutes at room temperature with agitation. The solution phase competition proceeded separately with the dilutions of test compound in PBST (phosphate buffered saline with Tween 20), 2% DMSO in a polypropylene plate (Corning 96-well storage plate) with a single concentration, 8.33 nM of the high affinity receptor for TNFα (R&D Systems). This solution phase incubation proceeded for 30 minutes at room temperature with agitation and was then added to the washed TNFα coated assay plate, 100 μL/well, and was incubated for a further 30 minutes at room temperature with agitation. The assay plate was washed and 100 μL goat anti-human IgG (Fc) HRP labeled antibody in PBST, 13 pM, (KPL Cat#04-10-2) was added to each well. This incubation proceeded for 25-30 minutes at room temperature with agitation. Following this incubation step, the plate was washed and a 100 μL TMB solution (SUREBLUE™ TMB Peroxidase substrate, KPL) was added per well and allowed to stand approximately 3-5 minutes for development. The TMB reaction was stopped with the addition of 0.5N HCl and then the plate was read for absorbance at 450 nm.
# T1 sequence (P01375 77-233 limits assumed, species assumed): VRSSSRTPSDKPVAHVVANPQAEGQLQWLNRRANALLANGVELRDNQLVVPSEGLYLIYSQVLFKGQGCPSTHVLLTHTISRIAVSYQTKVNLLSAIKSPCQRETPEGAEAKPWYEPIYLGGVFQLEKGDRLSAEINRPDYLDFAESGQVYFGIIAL
row,SMILES,IC50
1,O=C1COc2ccc(cc2)C[C@H](C(=O)N[C@H](CCc2ccccc2)C(=O)O)NC(=O)[C@H](CCc2ccccc2)NC(=O)[C@@H](Cc2ccc(-c3ccccc3)cc2)NC(=O)[C@H](Cc2c[nH]c3ccccc23)N1 [Compound 737],< 10 µM

# Same assay, conditions: Table 2; read-out: Activity (IC50, inhibition of TNFα binding to TNFα R1/Fc)
row,SMILES,IC50
1,CC(C)(C)OC(=O)C[C@H]1NC(=O)[C@H](Cc2ccc(-c3ccccc3)cc2)NC(=O)[C@@H](Cc2cccs2)NC(=O)CCC(=O)Nc2ccc(cc2)C[C@@H](C(=O)O)NC1=O [Compound 63] ([d2Thi][Bip][dD](OtBu)[Phe(4-NH2)]-OH; linker N-4 via Suc),> 100 µM
2,O=C1COc2ccc(cc2)C[C@@H](C(=O)O)NC(=O)[C@H](CCc2ccccc2)NC(=O)[C@@H](Cc2ccc(-c3ccccn3)cc2)NC(=O)[C@H](Cc2ccncc2)N1 [Compound 664],30 to 100 µM
3,O=C(O)[C@H](Cc1ccccc1)NC(=O)[C@H]1Cc2ccc(cc2)NC(=O)[C@H](O)[C@@H](O)C(=O)N[C@H](Cc2cccs2)C(=O)N[C@@H](Cc2ccc(Br)cc2)C(=O)N[C@H](Cc2ccccc2)C(=O)N1 [Compound 431],> 100 µM
4,N#Cc1ccc(C[C@H]2NC(=O)CCC(=O)Nc3ccc(cc3)C[C@@H](C(=O)O)NC(=O)[C@@H](Cc3ccccc3)NC(=O)[C@H](Cc3ccc(C(F)(F)F)cc3)NC2=O)cc1 [Compound 131] ([dPhe(4-CN)][Phe(4-CF3)][dF][Phe(4-NH2)]-OH; linker N-4 via Suc),30 to 100 µM
5,O=C(O)CCNC(=O)[C@@H]1Cc2ccc(cc2)OCC(=O)N[C@@H](Cc2ccc(-c3ccncc3)cc2)C(=O)N[C@H](Cc2ccc(-c3ccccc3)cc2)C(=O)N[C@@H](CCc2ccccc2)C(=O)N1 [Compound 579],< 10 µM
6,O=C1COc2ccc(cc2)C[C@@H](C(=O)O)NC(=O)[C@@H](CCc2ccccc2)NC(=O)[C@H](Cc2ccc(-c3ccccc3)cc2)NC(=O)[C@@H](Cc2ccc(C(F)(F)F)cc2)N1 [Compound 150],30 to 100 µM
7,O=C1COc2ccc(cc2)C[C@@H](C(=O)O)NC(=O)[C@H](Cc2ccc(F)cc2)NC(=O)[C@@H](Cc2ccc(-c3ccccc3)cc2)NC(=O)[C@H](Cc2cccs2)N1 [Compound 627],> 100 µM
8,O=C(O)CCNC(=O)[C@@H]1Cc2ccc(cc2)OCC(=O)N[C@@H](Cc2cccs2)C(=O)N[C@H](Cc2ccc(-c3ccccc3)cc2)C(=O)N[C@@H](CCc2ccccc2)C(=O)N1 [Compound 475],< 10 µM
9,O=C1COc2ccc(cc2)C[C@@H](C(=O)NCCS(=O)(=O)O)NC(=O)[C@H](CCc2ccccc2)NC(=O)[C@@H](Cc2ccc(-c3ccccc3)cc2)NC(=O)[C@H](Cc2ccc(-c3ccccc3)cc2)N1 [Compound 608],10 to 30 µM
10,O=C1COc2ccc(cc2)C[C@@H](C(=O)O)NC(=O)[C@@H](CCc2ccccc2)NC(=O)[C@H](Cc2ccc(Br)cc2)NC(=O)[C@@H](Cc2cccs2)N1 [Compound 539],> 100 µM
11,O=C(O)[C@@H]1Cc2ccc(cc2)NC(=O)[C@H](O)[C@@H](O)C(=O)N[C@H](Cc2ccccc2Cl)C(=O)N[C@@H](Cc2ccc(-c3ccccc3)cc2)C(=O)N[C@H](Cc2ccccc2)C(=O)N1 [Compound 315],10 to 30 µM
12,"CC(=O)O[C@H]1C(=O)Nc2ccc(cc2)C[C@H](C(=O)O)NC(=O)[C@@H](CCc2ccccc2)NC(=O)[C@H](Cc2ccc(Br)cc2)NC(=O)[C@@H](Cc2cccs2)NC(=O)[C@@H]1OC(C)=O [Compound 219] ([d2Thi][Phe(4-Br)][d(hPhe)][dPhe(4-NH2)]-OH; linker N-4 via Tartaroyl(2R,3R-(OAc)2))",< 10 µM
13,O=C1COCC(=O)N[C@H](Cc2cccs2)C(=O)N[C@@H](Cc2ccc(-c3ccccc3)cc2)C(=O)N[C@H](Cc2ccccc2)C(=O)N[C@H](C(=O)O)Cc2ccc(cc2)N1 [Compound 310] ([d2Thi][Bip][dF][Phe(4-NH2)]-OH; linker N-4 via Diglycolyl),> 100 µM
14,O=C(O)[C@H](Cc1ccccc1)NC(=O)[C@@H]1Cc2ccc(cc2)NC(=O)[C@H](O)[C@@H](O)C(=O)N[C@@H](Cc2cccs2)C(=O)N[C@H](Cc2ccc(-c3ccccc3)cc2)C(=O)N[C@@H](CCc2ccccc2)C(=O)N1 [Compound 433],> 100 µM
